For 2 molecules, Cmax and IC50 results are on record in ChEMBL document CHEMBL5226333, “Targeting Autophagy-Related Epigenetic Regulators for Cancer Drug Discovery” (J Med Chem, 2021).

A short description of data set [1]: Cmax in Swiss albino mouse plasma at 50 mg/kg,po and measured after 24 hrs. It counts as ADME, organism-based. To be noted: in vivo. More on the design: time 24 hrs, dose 50 mg/kg, route po.
Data set [2] deals with Histone-lysine N-methyltransferase EZH2 (Homo sapiens, UniProt Q15910). Briefly: Inhibition of EZH2 (unknown origin) in PRC2 complex using H3 (1 to 24 residues) and 3H-SAM as substrate incubated for 1 hrs by Scintillation proximity assay. In general terms: SPA uses beads or plates that emit light when radiolabelled molecules are held near them.
Chain of Histone-lysine N-methyltransferase EZH2 (Q15910 whole entry, the tested form may be a part): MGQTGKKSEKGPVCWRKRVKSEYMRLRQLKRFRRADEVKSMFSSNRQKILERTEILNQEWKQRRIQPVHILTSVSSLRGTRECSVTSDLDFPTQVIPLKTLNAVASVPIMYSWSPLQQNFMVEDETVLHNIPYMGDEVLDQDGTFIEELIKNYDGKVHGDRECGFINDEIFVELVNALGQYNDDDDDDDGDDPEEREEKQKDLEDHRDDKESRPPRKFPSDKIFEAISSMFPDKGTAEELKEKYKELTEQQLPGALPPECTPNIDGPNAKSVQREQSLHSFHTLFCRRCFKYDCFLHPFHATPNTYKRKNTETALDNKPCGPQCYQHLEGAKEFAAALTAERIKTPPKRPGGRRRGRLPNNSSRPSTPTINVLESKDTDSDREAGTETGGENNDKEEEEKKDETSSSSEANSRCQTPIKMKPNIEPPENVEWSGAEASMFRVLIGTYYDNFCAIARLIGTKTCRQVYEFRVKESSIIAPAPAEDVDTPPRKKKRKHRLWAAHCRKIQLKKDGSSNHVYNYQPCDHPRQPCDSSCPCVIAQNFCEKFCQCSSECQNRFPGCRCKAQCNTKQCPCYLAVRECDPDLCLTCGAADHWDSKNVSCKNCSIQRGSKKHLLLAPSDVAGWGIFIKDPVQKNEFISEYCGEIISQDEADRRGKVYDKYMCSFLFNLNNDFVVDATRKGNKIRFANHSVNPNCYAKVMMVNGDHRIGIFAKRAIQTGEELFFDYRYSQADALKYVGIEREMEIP
A short description of data set [3]: Inhibition of GST-tagged […] human GLP (610 to 917 residues) methylation activity expressed in Escherichia coli BL21 assessed as reduction in H3K9me3 level using H3(1 to 20 residues)-cys-biotin and SAM as substrate incubated for 60 mins by Dissociation enhanced lanthanide fluoro-immuno assay.

Bounds are passed on as bounds.

As usually defined, the Cmax is the highest concentration seen after dosing. What is called IC50 is the concentration that inhibits the measured activity by half. `CCCc1cc(C)[nH]c(=O)c1CNC(=O)c1cc(-c2ccc(N3CCN(C(C)C)CC3)nc2)cc2c1cnn2C(C)C` gave a Cmax in data set [1] of 4.7 µM. In addition, in data set [2], the IC50 was less than 10 nM. `COc1cc2nc(N3CCCN(C)CC3)nc(NC3CCN(Cc4ccccc4)CC3)c2cc1OC`: the IC50 in data set [3] is 38 µM.
